According to patent US20100172916A1, “SUBSTITUTED HYDROXYPHENYLAMINE COMPOUNDS” (AUSPEX PHARMACEUTICALS, INC., priority 2008, published 2010):

Experiment: In vitro liver microsomal stability assay
Type: in vitro ADME
Conditions: 0.5 mg per mL liver microsome protein, NADPH-generating system, 5 microgram per mL test compound, 37° C., 0-30 minutes, LC/MS/MS
Description: Liver microsomal stability assays were conducted at 0.5 mg per mL liver microsome protein with an NADPH-generating system in 2% sodium bicarbonate (2.2 mM NADPH, 25.6 mM glucose 6-phosphate, 6 units per mL glucose 6-phosphate dehydrogenase and 3.3 mM magnesium chloride). Test compounds were prepared as solutions in 20% acetonitrile-water and were added to the assay mixture (final assay concentration 5 microgram per mL) and incubated at 37° C. Final concentration of acetonitrile in the assay should be <1%. Aliquots (50 μL) were taken out at times 0, 7.5, 15, 22.5, and 30 minutes, and diluted with ice cold acetonitrile (200 μL) to stop the reactions. Samples were centrifuged at 12,000 RPM for 10 minutes to precipitate proteins. Supernatants were transferred to microcentrifuge tubes and stored for LC/MS/MS analysis of the degradation half-life of the test compounds.

degradation half-life as compared to the non-isotopically enriched drug | Structure (SMILES)
decrease in degradation half-life | [2H]C([2H])(c1cccc(O)c1)[C@]([2H])(N)C(=O)O [Example 3, d3-2-Amino-3-(3-hydroxy-phenyl)-propionic acid]
decrease in degradation half-life | [2H][C@@H](c1cccc(O)c1)[C@]([2H])(N)C(=O)O [Example 2, d3-2-Amino-3-(3-hydroxy-phenyl)-propionic acid]
